# Measurements as given in patent publication US12312359B2 (Vitae Pharmaceuticals, LLC, priority 2016, dated 2025).
# What was measured:
# [1] = molecular target: T1, biotinylated wild-type menin and MLL-AF9 fusion protein (menin/MLL binding) (Homo sapiens, UniProt O00255); assay: Assay 1: menin/MLL binding AlphaLISA assay, wild-type menin; conditions: Table 30; column head does not say wild-type or mutated menin
# T1 construct: made in house; host or cells: menin: E. coli; MLL-AF9-FLAG: HEK293 cells, used as cleared lysate
# T1 sequence (O00255 1-610): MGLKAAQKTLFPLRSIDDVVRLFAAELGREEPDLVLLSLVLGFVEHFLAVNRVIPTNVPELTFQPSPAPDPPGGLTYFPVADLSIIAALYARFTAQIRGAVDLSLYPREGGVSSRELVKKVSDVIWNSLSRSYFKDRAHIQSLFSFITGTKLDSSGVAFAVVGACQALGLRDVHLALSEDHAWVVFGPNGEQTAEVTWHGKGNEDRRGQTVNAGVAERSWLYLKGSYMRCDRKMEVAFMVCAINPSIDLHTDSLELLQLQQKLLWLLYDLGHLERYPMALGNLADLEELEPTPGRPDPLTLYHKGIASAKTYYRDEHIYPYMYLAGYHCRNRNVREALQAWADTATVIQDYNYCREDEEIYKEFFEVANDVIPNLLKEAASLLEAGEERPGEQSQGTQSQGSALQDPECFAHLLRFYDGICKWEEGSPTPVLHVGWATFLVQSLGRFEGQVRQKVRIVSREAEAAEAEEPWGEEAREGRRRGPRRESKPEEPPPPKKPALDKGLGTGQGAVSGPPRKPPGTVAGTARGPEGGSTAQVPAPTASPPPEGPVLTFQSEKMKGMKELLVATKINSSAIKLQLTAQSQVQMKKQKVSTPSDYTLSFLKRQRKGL
# Outline: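 Compound was preincubated 30 min at room temperature with biotinylated menin (5 nM) and MLL-AF9-FLAG lysate from HEK293 cells, pH 7.4 buffer with 5% DMSO and DTT. Bead-based Alpha signal after 60 min with streptavidin donor and anti-FLAG acceptor beads; four-parameter logistic fit gave IC50.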
# [2] = test system: human acute monocytic leukemia cell line MV-4-11; assay: Assay 2: cell proliferation assay (ATP quantitation, CellTiter-Glo), MV-4-11; type: cell-based; conditions: MV-4-11 cells
# Outline: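 Read-out is CellTiter-Glo luminescence quantifying ATP. Compound exposure lasted 72 h at 37° C., 5% CO2, with 1.67×10^4 MV-4-11 cells per well in 10% FBS medium, alongside HL-60 toxicity-control cells.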
Structure (SMILES),IC50 [1] [nM],"EC50 ([2]; Homo sapiens, MV4-11, 72 h) [nM]",EC50 ([2]; 72 h) [nM]
"CC(C)N(C)C(=O)c1cc(F)ccc1Oc1cncnc1N1CCC2(CCN(Cc3ccc4[nH]c(=O)[nH]c4c3)C2)C1 (stereo not drawn) [Example 183, 5-fluoro-N-isopropyl-N-methyl-2-((4-(7-((2-oxo-2,3-dihydro-1H-benzo[d]imidazol-5-yl)methyl)-2,7-diazaspiro[4.4]nonan-2-yl)pyrimidin-5-yl)oxy)benzamide]",< 100,< 100,–
"CC(C)N(C(=O)c1cc(F)ccc1Oc1cncnc1N1CCC2(CCN(Cc3ccc4[nH]c(=O)[nH]c4c3)C2)C1)C(C)C (racemic) [Example 1, 5-fluoro-N,N-diisopropyl-2-((4-(7-((2-oxo-2,3-dihydro-1H-benzo[d]imidazol-5-yl)methyl)-2,7-diazaspiro[4.4]nonan-2-yl)pyrimidin-5-yl)oxy)benzamide]",< 100,< 100,–
"CC(C)N(C(=O)c1cc(F)ccc1Oc1cncnc1N1CC2(CCN(C3CCc4cc(F)ccc4C3)C2)C1)C(C)C (stereo not drawn) [Example 114, 5-fluoro-2-((4-(6-(6-fluoro-1,2,3,4-tetrahydronaphthalen-2-yl)-2,6-diazaspiro[3.4]octan-2-yl)pyrimidin-5-yl)oxy)-N,N-diisopropylbenzamide]",< 100,100 to 1000,–
"CC(C)N(C)C(=O)c1cc(F)ccc1Oc1cncnc1N1CCC2(CCN(Cc3c[nH]c4cc(C#N)ccc34)C2)C1 (stereo not drawn) [Example 194, 2-((4-(7-((6-cyano-1H-indol-3-yl)methyl)-2,7-diazaspiro[4.4]nonan-2-yl)pyrimidin-5-yl)oxy)-5-fluoro-N-isopropyl-N-methylbenzamide]",< 100,100 to 1000,–
"CC(C)N(C(=O)c1cc(F)ccc1Oc1cncnc1N1CCC2(CCN(Cc3ccc4c(c3)NC(=O)C4(C)C#N)C2)C1)C(C)C (stereo not drawn) [Example 90, 2-((4-(7-((3-cyano-3-methyl-2-oxoindolin-6-yl)methyl)-2,7-diazaspiro[4.4]nonan-2-yl)pyrimidin-5-yl)oxy)-5-fluoro-N,N-diisopropylbenzamide]",< 100,< 100,–
"CC(C)c1ncncc1-c1cc(F)ccc1Oc1cncnc1N1CCC2(CCN(Cc3ccc4[nH]c(=O)[nH]c4c3)C2)C1 (stereo not drawn) [Example 160, 5-((7-(5-(4-fluoro-2-(4-isopropylpyrimidin-5-yl)phenoxy)pyrimidin-4-yl)-2,7-diazaspiro[4.4]nonan-2-yl)methyl)-1,3-dihydro-2H-benzo[d]imidazol-2-one]",< 100,< 100,–
"CCC(C)(OC)c1cc(F)ccc1Oc1cncnc1N1CCC2(CCN(Cc3ccc4[nH]c(=O)[nH]c4c3)C2)C1 (stereo not drawn) [Example 33, 5-((7-(5-(4-fluoro-2-(2-methoxybutan-2-yl)phenoxy)pyrimidin-4-yl)-2,7-diazaspiro[4.4]nonan-2-yl)methyl)-1,3-dihydro-2H-benzo[d]imidazol-2-one]",< 100,100 to 1000,–
"CC(C)c1ncncc1-c1cc(F)ccc1Oc1cncnc1N1CC2(CC(NCc3ccc(C#N)cc3)C2)C1 [Example 152, 4-(((2-(5-(4-fluoro-2-(4-isopropylpyrimidin-5-yl)phenoxy)pyrimidin-4-yl)-2-azaspiro[3.3]heptan-6-yl)amino)methyl) benzonitrile]",< 100,< 100,–
"N#Cc1ccc(-c2cc(F)ccc2Oc2cncnc2N2CCC3(CCN(Cc4ccc5[nH]c(=O)[nH]c5c4)C3)C2)c(C2CC2)c1 (single isomer, unassigned) [Example 42B, 2-cyclopropyl-5′-fluoro-2′-((4-(7-((2-oxo-2,3-dihydro-1H-benzo[d]imidazol-5-yl)methyl)-2,7-diazaspiro[4.4]nonan-2-yl)pyrimidin-5-yl)oxy)-[1,1′-biphenyl]-4-carbonitrile]",< 100,–,< 100
"CC(C)N(C(=O)c1cc(F)ccc1Oc1cncnc1N1CC2(CCN(CC3CCOCC3)CC2)C1)C(C)C [Example 101, 5-fluoro-N,N-diisopropyl-2-((4-(7-((tetrahydro-2H-pyran-4-yl)methyl)-2,7-diazaspiro[3.5]nonan-2-yl)pyrimidin-5-yl)oxy)benzamide]",< 100,100 to 1000,–
"CC(C)N(C)C(=O)c1cc(F)ccc1Oc1cncnc1N1CCC2(CCN(Cc3ccc4oc(=O)[nH]c4c3)C2)C1 (stereo not drawn) [Example 174, 5-fluoro-N-isopropyl-N-methyl-2-((4-(7-((2-oxo-2,3-dihydrobenzo[d]oxazol-5-yl)methyl)-2,7-diazaspiro[4.4]nonan-2-yl)pyrimidin-5-yl)oxy)benzamide]",< 100,< 100,–
"CC(C)c1ncncc1-c1cc(F)ccc1Oc1cncnc1N1CC2(CC(NC3CCC(C)(C#N)CC3)C2)C1 (single isomer, unassigned) [Example 148A, 4-((2-(5-(4-fluoro-2-(4-isopropylpyrimidin-5-yl)phenoxy)pyrimidin-4-yl)-2-azaspiro[3.3]heptan-6-yl)amino)-1-methylcyclohexane carbonitrile]",< 100,100 to 1000,–
"CC(C)Cc1cc(F)ccc1Oc1cncnc1N1CCC2(CCN(Cc3ccc4[nH]c(=O)[nH]c4c3)C2)C1 (stereo not drawn) [Example 236, 5-((7-(5-(4-fluoro-2-isobutylphenoxy)pyrimidin-4-yl)-2,7-diazaspiro[4.4]nonan-2-yl)methyl)-1,3-dihydro-2H-benzo[d]imidazol-2-one]",< 100,100 to 1000,–
"N#Cc1ccc(-c2cc(F)ccc2Oc2cncnc2N2CCC3(CCN(Cc4ccc5c(c4)NC(=O)C5)C3)C2)c(C2CC2)c1 (stereo not drawn) [Example 196, 2-cyclopropyl-5′-fluoro-2′-((4-(7-((2-oxoindolin-6-yl)methyl)-2,7-diazaspiro[4.4]nonan-2-yl)pyrimidin-5-yl)oxy)-[1,1′-biphenyl]-4-carbonitrile]",< 100,< 100,–
"CC(C)N(C)C(=O)c1cc(F)ccc1Oc1cncnc1N1CCC2(CCN(Cc3ccc4c(c3)NC(=O)C4(C)C)C2)C1 (stereo not drawn) [Example 202, 2-((4-(7-((3,3-dimethyl-2-oxoindolin-6-yl)methyl)-2,7-diazaspiro[4.4]nonan-2-yl)pyrimidin-5-yl)oxy)-5-fluoro-N-isopropyl-N-methylbenzamide]",< 100,100 to 1000,–
"CC(C)c1ncncc1-c1cc(F)ccc1Oc1cncnc1N1CC2(CC(N3CCc4cc(F)ccc4C3)CO2)C1 (stereo not drawn) [Example 139, 2-(5-(4-fluoro-2-(4-isopropylpyrimidin-5-yl)phenoxy)pyrimidin-4-yl)-7-(6-fluoro-3,4-dihydroisoquinolin-2(1H)-yl)-5-oxa-2-azaspiro[3.4]octane]",< 100,100 to 1000,–
"O=c1[nH]c2ccc(CN3CCC4(CCN(c5ncncc5Oc5ccc(F)cc5-c5cccnc5C5CC5)C4)C3)cc2[nH]1 (stereo not drawn) [Example 180, 5-((7-(5-(2-(2-cyclopropylpyridin-3-yl)-4-fluorophenoxy)pyrimidin-4-yl)-2,7-diazaspiro[4.4]nonan-2-yl)methyl)-1,3-dihydro-2H-benzo[d]imidazol-2-one]",< 100,< 100,–
"CCN(C(=O)C(C)C)c1cc(F)ccc1Oc1cncnc1N1CC2(CN(CC3CCOCC3)C2)C1 [Example 121, N-ethyl-N-(5-fluoro-2-((4-(6-((tetrahydro-2H-pyran-4-yl)methyl)-2,6-diazaspiro[3.3]heptan-2-yl)pyrimidin-5-yl)oxy)phenyl)isobutyramide]",< 100,100 to 1000,–
